# Assay results taken from patent publication US20020052377A1, “Method for treating angina” (priority 2000, published 2002).
# Like-named read-outs stand apart in the source and are kept apart here.
# Experiments:
# [1] = tested on: patients with chronic stable angina pectoris; assay: Safety, tolerability and hemodynamics, IR regimens (Example 3); type: in vivo, human
# Method: After each 1 week period, patients returned to the exercise laboratory in the morning, at least 1 hour after a light breakfast, for an ETT. This was designated the trough ETT; the trough ETTs were performed at the same time of day for each patient. After completing the trough ETT, the patient received the next scheduled blinded medication dose from the blister pack used that week. Another ETT was performed 1 hour after the administered dose. This was designated the peak ETT. Blood samples were obtained at trough (approximately 8 hours after dosing) and at peak (1 hour after dosing). Other standard laboratory tests were monitored regularly throughout the study. Blood pressure (by cuff) and heart rate were monitored before all ETTs, during the ETT, during the last minute of each stage of the test, at onset angina, at the point of maximum exercise, and during recovery (every minute for 4 minutes, then every 5 minutes until values returned to baseline). Heart rates also was monitored continuously and standard 12-lead ECG recordings were done immediately before exercise with the patient standing on the treadmill, at the end of each stage of exercise, at the maximally tolerated exercise load, and at the termination of exercise.
# [2] = tested on: patients with angina, with or without diabetes; assay: MARISA exercise duration, diabetic (DM) vs non-DM patients; type: in vivo, human
# Method: In this Example, ranolazine (Ran) was administered to two sets of human subjects. The first set of subjects were suffering from angina alone while the second set of subjects were suffering from angina and diabetes. The […] (Monotherapy Assessment of Ranolazine in Stable Angina) study randomized patients to Ran (500 mg, 1000 mg and 1500 mg bit) and placebo in a double-blind, 4 period crossover study. All patients performed a modified Bruce exercise test at the time of trough and peak drug levels on each treatment; 42 patients with DM were compared to 133 non-DM patients.
# [3] = Peak and trough ranolazine plasma concentrations, IR regimens (Example 3); type: in vivo; settings: human, oral
# Method: In this Example, the safety and anti-ischemic effects of high plasma ranolazine levels in a large group of angina patients was evaluated and the duration of any effects during steady-state dosing with bid and tid regimens was assessed. In this Example, patients with chronic stable angina pectoris who were responsive to conventional antianginal drugs were treated with 3 ranolazine.2HCl dosing regimens: 267 mg tid, 400 mg bid and 400 mg tid IR Formulations of Example 1. Exercise testing parameters and ranolazine free base concentrations were determined at peak and trough plasma levels.
# After each 1 week period, patients returned to the exercise laboratory in the morning, at least 1 hour after a light breakfast, for an ETT. This was designated the trough ETT; the trough ETTs were performed at the same time of day for each patient. After completing the trough ETT, the patient received the next scheduled blinded medication dose from the blister pack used that week. Another ETT was performed 1 hour after the administered dose. This was designated the peak ETT. Blood samples were obtained at trough (approximately 8 hours after dosing) and at peak (1 hour after dosing). Other standard laboratory tests were monitored regularly throughout the study.
# [4] = tested on: patients with stable angina; assay: MARISA exercise testing (modified Bruce protocol), sustained release ranolazine; type: in vivo, human
# Method: is the first study of sustained release ranolazine (SR) in stable angina. Methods: Patients withdrawn from other anti-anginal drugs with reproducible angina-limited exercise duration and ≧1 mm ST depression were randomized to Ran (500 mg bid, 1000 mg bit and 1500 mg bid) and matching placebo (Pbo) in a double-blind, four-period, Latin square crossover design. Exercise testing with a modified Bruce protocol was performed at both trough (12 hr after dosing) and peak (4 hr after dosing). Results: 49 centers in the USA, Czech Republic, Poland and Canada randomized 191 patients. 168 completed all 4 double-blind treatment periods; 7 more completed 3 of 4 periods.
# [5] = tested on: regional myocardial ischemia and reperfusion; assay: Rat model of regional myocardial ischemia and reperfusion (LAD-occlusion); type: in vivo, Male Wistar rats; settings: LAD-occlusion 25 min, reperfusion 2 h, bolus 10 mg/kg + infusion 96. mg/kg/h from 30 min before occlusion, mean±SEM, n=12
# Method: The aim of this study was to investigate whether ranolazine exerts beneficial effects in a rat model of regional myocardial ischemia and reperfusion. Methods: Male Wistar rats were subjected to no LAD-occlusion (sham) or LAD-occlusion (25 min) and reperfusion (2 h). Saline (bolus: 2.4 mL/kg+infusion: 24. mL/kg/h) or ranolazine (bolus: 10 mg/kg +infusion; 96. mg/kg/h) were infused 30 min before LAD-occlusion and throughout the experiment. At the end of the experiment area at risk (AR, % of left ventricle), infarct size (IS, % of AR), and plasma cardiac troponin T (cTnT, ng/mL) were determined. The following groups were studied: Group 1. sham saline (n=4), Group 2. saline control (n=12), Group 3. ranolazine (n=12).
smiles,measurement,setting,value
"COc1ccccc1OCC(O)CN1CCN(CC(=O)Nc2c(C)cccc2C)CC1 (racemic) [Ranolazine, (±)-N-(2,6-dimethylphenyl)-4-[2-hydroxy-3-(2-methoxyphenoxy)propyl]-1-piperazine-acetamide]","blood glucose concentrations, lipid values or liver function tests",[1]; IR dosing regimens,no clinically significant changes
same,ECG intervals or complex morphology,[1]; IR dosing regimens vs placebo,no drug-related changes
same,tolerability,[1]; over the plasma concentrations achieved in the study,well tolerated
same,Ls mean ED,"[2]; DM n = 42, 500 mg bid, peak",527 s
same,Ls mean ED,"[2]; DM n = 42, 500 mg bid, trough",520 s
same,Ls mean ED,"[2]; DM n = 42, 1000 mg bid, peak",550 s
same,Ls mean ED,"[2]; DM n = 42, 1000 mg bid, trough",526 s
same,Ls mean ED,"[2]; DM n = 42, 1500 mg bid, peak",547 s
same,Ls mean ED,"[2]; DM n = 42, 1500 mg bid, trough",530 s
same,Ls mean ED,"[2]; Non-DM n = 133, 500 mg bid, peak",530 s
same,Ls mean ED,"[2]; Non-DM n = 133, 500 mg bid, trough",528 s
same,Ls mean ED,"[2]; Non-DM n = 133, 1000 mg bid, peak",550 s
same,Ls mean ED,"[2]; Non-DM n = 133, 1000 mg bid, trough",539 s
same,Ls mean ED,"[2]; Non-DM n = 133, 1500 mg bid, peak",557 s
same,Ls mean ED,"[2]; Non-DM n = 133, 1500 mg bid, trough",544 s
same,concentration at 1 h,"[3]; female, 267 mg, Females, IR 267 mg tid, read-out: Ranolazine Plasma Concentration, Peak, mean (SD)",1590 ng/mL
same,concentration at 8 h,"[3]; female, 267 mg, Females, IR 267 mg tid, read-out: Ranolazine Plasma Concentration, Trough, mean (SD)",316 ng/mL
same,concentration at 1 h,"[3]; female, 400 mg, Females, IR 400 mg bid, read-out: Ranolazine Plasma Concentration, Peak, mean (SD)",2170 ng/mL
same,concentration at 8 h,"[3]; female, 400 mg, Females, IR 400 mg bid, read-out: Ranolazine Plasma Concentration, Trough, mean (SD)",235 ng/mL
same,concentration at 1 h,"[3]; female, 400 mg, Females, IR 400 mg tid, read-out: Ranolazine Plasma Concentration, Peak, mean (SD)",2650 ng/mL
same,concentration at 8 h,"[3]; female, 400 mg, Females, IR 400 mg tid, read-out: Ranolazine Plasma Concentration, Trough, mean (SD)",505 ng/mL
same,concentration at 1 h,"[3]; 267 mg, All Patients, IR 267 mg tid, read-out: Ranolazine Plasma Concentration, Peak, mean (SD)",1350 ng/mL
same,concentration at 8 h,"[3]; 267 mg, All Patients, IR 267 mg tid, read-out: Ranolazine Plasma Concentration, Trough, mean (SD)",316 ng/mL
same,concentration at 1 h,"[3]; 400 mg, All Patients, IR 400 mg bid, read-out: Ranolazine Plasma Concentration, Peak, mean (SD)",1880 ng/mL
same,concentration at 8 h,"[3]; 400 mg, All Patients, IR 400 mg bid, read-out: Ranolazine Plasma Concentration, Trough, mean (SD)",235 ng/mL
same,concentration at 1 h,"[3]; 400 mg, All Patients, IR 400 mg tid, read-out: Ranolazine Plasma Concentration, Peak, mean (SD)",2130 ng/mL
same,concentration at 8 h,"[3]; 400 mg, All Patients, IR 400 mg tid, read-out: Ranolazine Plasma Concentration, Trough, mean (SD)",514 ng/mL
same,concentration at 8 h,"[3]; across the 3 IR dosing regimens, read-out: Mean trough ranolazine plasma concentrations",235 to 514 ng/mL
same,concentration at 1 h,"[3]; across the 3 IR dosing regimens, read-out: plasma mean peak concentrations, ranolazine free base",1350 to 2130 ng/mL
same,concentration at 1 h,"[3]; male, 267 mg, Males, IR 267 mg tid, read-out: Ranolazine Plasma Concentration, Peak, mean (SD)",1260 ng/mL
same,concentration at 8 h,"[3]; male, 267 mg, Males, IR 267 mg tid, read-out: Ranolazine Plasma Concentration, Trough, mean (SD)",316 ng/mL
same,concentration at 1 h,"[3]; male, 400 mg, Males, IR 400 mg bid, read-out: Ranolazine Plasma Concentration, Peak, mean (SD)",1760 ng/mL
same,concentration at 8 h,"[3]; male, 400 mg, Males, IR 400 mg bid, read-out: Ranolazine Plasma Concentration, Trough, mean (SD)",235 ng/mL
same,concentration at 1 h,"[3]; male, 400 mg, Males, IR 400 mg tid, read-out: Ranolazine Plasma Concentration, Peak, mean (SD)",1920 ng/mL
same,concentration at 8 h,"[3]; male, 400 mg, Males, IR 400 mg tid, read-out: Ranolazine Plasma Concentration, Trough, mean (SD)",518 ng/mL
same,Time to 1 mm ST Depression,"[4]; SR 500 mg bid, peak",479 s
same,Time to Angina,"[4]; SR 500 mg bid, peak",452 s
same,Exercise Duration,"[4]; SR 500 mg bid, peak (4 hr after dosing)",532 s
same,Time to 1 mm ST Depression,"[4]; SR 500 mg bid, trough",470 s
same,Time to Angina,"[4]; SR 500 mg bid, trough",437 s
same,Exercise Duration,"[4]; SR 500 mg bid, trough (12 hr after dosing)",533 s
same,Time to 1 mm ST Depression,"[4]; SR 1000 mg bid, peak",502 s
same,Time to Angina,"[4]; SR 1000 mg bid, peak",474 s
same,Exercise Duration,"[4]; SR 1000 mg bid, peak (4 hr after dosing)",555 s
same,Time to 1 mm ST Depression,"[4]; SR 1000 mg bid, trough",491 s
same,Time to Angina,"[4]; SR 1000 mg bid, trough",457 s
same,Exercise Duration,"[4]; SR 1000 mg bid, trough (12 hr after dosing)",545 s
same,Time to 1 mm ST Depression,"[4]; SR 1500 mg bid, peak",508 s
same,Time to Angina,"[4]; SR 1500 mg bid, peak",487 s
same,Exercise Duration,"[4]; SR 1500 mg bid, peak (4 hr after dosing)",561 s
same,Time to 1 mm ST Depression,"[4]; SR 1500 mg bid, trough",514 s
same,Time to Angina,"[4]; SR 1500 mg bid, trough",472 s
same,Exercise Duration,"[4]; SR 1500 mg bid, trough (12 hr after dosing)",559 s
same,area at risk (AR),[5],48±1 % of left ventricle
same,infarct size (IS),[5],41±4 % of AR
same,plasma cardiac troponin T (cTnT),[5],12 ± 2 ng/mL
